Experimental data reported in patent publication US4287191A, “Novel salicylanilides and microbiocidal compositions and uses thereof” (The Research Foundation of State University of New York, priority 1980, dated 1981).
Values after ≈ are worked out from the molar mass of the structure shown. Like-named read-outs stand apart in the source and are kept apart here.

Key:
Actinomyces viscosus = experiment: Minimum concentration which will completely inhibit growth, Actinomyces viscosus; format: cell-based; settings: A.viscosus, growth medium, read-out: Min. Conc. (minimum concentration which will completely inhibit growth)
S. mutans = experiment: Minimum concentration which will completely inhibit growth, S. mutans; format: cell-based; settings: Streptococcus mutans, procedure of Example 6
Description: 5-n-octanoyl-2',3',4',5',6'pentafluorosalicylanilide is tested for effectiveness against S. mutans essentially in accordance with the procedure of Example 6.

Staphylococcus aureus = experiment: Minimum concentration to completely inhibit growth, Staphylococcus aureus; format: cell-based; settings: procedure of Example 6
Description: AN-10 is tested for effectiveness against the bacterium Staphylococcus aureus in accordance with the procedure set forth in Example 6.

S.sanguis = experiment: Plaque growth inhibition in vitro on bovine tooth slabs, S.sanguis; format: cell-based, Streptoccus sanguis; settings: for IC50: 2 min slab exposure, about 24 h incubation, anaerobic, reliability + or -80% or better; for % Inhibition @ Mol.Conc.: @ 1 × 10^-3 Mol.Conc.
Description: (§1) The composition prepared in example 2 above is tested in vitro for plaque inhibition in comparison with prior art compounds. The test used is set forth in detail in Comparison of Antiplaque Agents Using an In Vitro Assay Reflecting Oral Conditions by R. T. Evans et al, Journal of Dental Research, June 1977.
(§2) In summary bovine mandibles, obtained immediately after slaughter, are cut into 4×8 mm slabs and sterilized in a 0.15 M NaCl solution buffered at a pH of 7.5 with 0.02 M sodium phosphate (PBS soln.) Before use the slabs are coated with sterile saliva and then rinsed twice in sterile PBS. The slabs are then placed in small plastic petri dishes containing various concentrations of the compositions to be tested. The test solution used in accordance is a solution of the composition in a mixture of 20% by volume of ethanol, 40% by volume of propylene glycol and 40% by volume of a pH 8 aqueous buffer solution containing mono and di sodium phosphates. The slabs are left in the solution of the composition for two minutes and then rinsed in sterile PBS solution. After rinsing, each slab is placed in a 10×75 mm cotton stoppered glass culture tube containing 1 ml of sucrose-broth culture medium which is then innoculated with a 24 hour culture of the desired microorganism standardized to an optical density (OD) 540 of 1.0 for A. naeslundii and S. sanguis and of 0.75 for A. viscosus and S. mutans. 50 μl of the inoculation medium is used. A. viscosus is incubated under aerobic conditions and the others are incubated under anaerobic conditions (5% CO2 and 95% H2). After incubation for about 24 hours the nonadherent organisms are removed and the tube is rinsed twice with 0.5 ml of PBS and the washings combined with the nonadherent organisms.
(§3) The tooth slabs are then transferred to 1 ml of 0.1 N NaOH and 1 ml of 0.1 N NaOH is also added to the glass culture tubes. The slabs and tubes are then sonically agitated, if necessary to suspend the adherent organisms. The optical density of each of the three fractions is then measured on a spectophotometer. The tests are repeated with varying concentrations of the compositions being tested until growth inhibition curves can be developed. The 50% growth inhibition dosages (ID50) are then determined with a reliability of + or -80% or better.

S.mutans [1] = experiment: Plaque growth inhibition in vitro on bovine tooth slabs, S.mutans; format: cell-based, Streptococcus mutans; settings: for IC50: Streptococcus mutans, 2 min slab exposure, about 24 h incubation, anaerobic, reliability + or -80% or better
Description: as §1, §2, §3

S.mutans [2] = experiment: Bactericidal effects against established dental plaque (nichrome wires), S.mutans; format: cell-based; settings: Streptococcus mutans, 2 min, read-out: Minimum Concentration Required for Complete Bactericidal Effect
Description: (§4) In vitro plaques are grown on no. 20 nichrome wires by fixing the wires to culture tube closures to suspend the wires into a complex culture medium supplemented with 5% by wt of sucrose and 0.005% sodium carbonate. Separate cultures are initially inoculated with A.viscosus and S.mutans and the wires are transferred daily to fresh medium until the wire-adherent microorganisms form well established plaques. All cultures are incubated at 37 degrees C. Plaque coated wires are then immersed in a solution of composition to be tested. The compositions tested are AN-10 and Chlorhexidine. The immersion time is two minutes. The solution in which the composition is dissolved is the same solution used to dissolve the composition in the previous example. The plaque is then rinsed with distilled water and transferred to fresh medium. The lack of growth in the fresh medium is considered as an indication that the microorganisms have been killed. Further plaque coated wires are treated as previously described until sufficient information is obtained to determine the minimum concentration of composition required to kill the microorganisms.

A.viscosus [3] = experiment: Plaque growth inhibition in vitro on bovine tooth slabs, A.viscosus; format: cell-based, Actinomyces viscosus; settings: for IC50: Actinomyces viscosus, 2 min slab exposure, about 24 h incubation, aerobic, reliability + or -80% or better
Description: as §1, §2, §3

A.naeslundii = experiment: Plaque growth inhibition in vitro on bovine tooth slabs, A.naeslundii; format: cell-based, Actinomyces naeslundii; settings: for IC50: Actinomyces naeslundii, 2 min slab exposure, about 24 h incubation, anaerobic, reliability + or -80% or better
Description: as §1, §2, §3

[4] = Acute oral toxicity of AN-10 (single dose, gavage); format: in vivo
Description: Sixteen female white rats averaging 265 grams in weight were fasted overnight and divided into four groups of four animals each. In one group each animal received, by gavage tube, 4 ml of an aqueous solution of 1% methylcellulose, the drug delivery vehicle. This group was the control group. The remaining three groups received doses of 50, 750, and 2000 mg/kg of AN-10 in 4-ml aqueous suspension, respectively.
This animal had received the 50 mg/kg dose.
From this experiment it can be concluded that the LD50 for AN-10 by the single dose oral route is greater than 2000 mg/kg in Osborne-Mendel white rats.

A.viscosus [5] = experiment: Bactericidal effects against established dental plaque (nichrome wires), A.viscosus; format: cell-based; settings: Actinomyces viscosus, 2 min, read-out: Minimum Concentration Required for Complete Bactericidal Effect
Description: as §4

[6] = background statement; cited from earlier work
[7] = S.mutans established plaque, immersion time two minutes
[8] = A.viscosus established plaque, immersion time two minutes

## CCCCCCCCCC(=O)c1ccc(O)c(C(=O)Nc2ccc(Br)cc2)c1 [5-n-decoyl-4'-bromosalicylanilide]
Actinomyces viscosus
  MIC: 0.125 µg/mL (≈ 0.28 µM)

## CCCCCCCCCCCC(=O)c1ccc(O)c(C(=O)Nc2cccc(C(F)(F)F)c2)c1 [5-n-dodecoyl-3'-trifluoromethylsaliclyanilide]
Actinomyces viscosus
  MIC: 0.5 to 1 µg/mL (≈ 1.08 to 2.16 µM)

## CCCCCCCCCCCC(=O)c1ccc(O)c(C(=O)Nc2ccc(Br)cc2)c1 [5-n-dodecoyl-4'-bromosalicylanilide]
Actinomyces viscosus
  MIC: 0.05 µg/mL (≈ 0.105 µM)

## CCCCCCCCCCCC(=O)c1ccc(O)c(C(=O)Nc2ccc([N+](=O)[O-])cc2)c1 [5-n-dodecoyl-4'-nitrosalicylanilide]
Actinomyces viscosus
  MIC: 0.05 µg/mL (≈ 0.113 µM)

## CCCCCCCC(=O)c1ccc(O)c(C(=O)Nc2c(F)c(F)c(F)c(F)c2F)c1 [5-n-octanoyl-2',3',4',5',6'pentafluorosalicylanilide]
S. mutans
  MIC: ~0.5 µg/mL (≈ 1.16 µM)

## CCCCCCCC(=O)c1ccc(O)c(C(=O)Nc2ccc([N+](=O)[O-])cc2)c1 [5-n-octoyl-4'-nitrosalicylanilide]
Actinomyces viscosus
  MIC: 0.125 µg/mL (≈ 0.325 µM)

## CCCCCCCCCC(=O)c1ccc(O)c(C(=O)Nc2ccc([N+](=O)[O-])cc2)c1 [AN-10, 5-n-decanoyl-4'-nitrosalicylanilide]
Staphylococcus aureus
  MIC: < 10 µg/mL
S.sanguis; read-out: ID50 Adherent Growth
  IC50: 670 µM
S.sanguis; read-out: ID50 Total Growth
  IC50: 370 µM
S.sanguis
  % Inhibition @ Mol.Conc.: 86%
S.mutans [1]; @ 1 × 10^-3 Mol.Conc.
  % Inhibition @ Mol.Conc.: 59%
S.mutans [1]; read-out: ID50 Adherent Growth
  IC50: 23000 µM
S.mutans [1]; read-out: ID50 Total Growth
  IC50: 1600 µM
S.mutans [2]; [7]
  MBC: 62.5 µg/mL (≈ 152 µM)
A.viscosus [3]; @ 1 × 10^-4 Mol.Conc.
  % Inhibition @ Mol.Conc.: 96%
A.viscosus [3]; read-out: ID50 Adherent Growth
  IC50: 70 µM
A.viscosus [3]; read-out: ID50 Total Growth
  IC50: 73 µM
A.naeslundii; @ 3.3 × 10^-4 Mol.Conc.
  % Inhibition @ Mol.Conc.: 96%
A.naeslundii; read-out: ID50 Adherent Growth
  IC50: 43 µM
A.naeslundii; read-out: ID50 Total Growth
  IC50: 83 µM
[4]; 50, 750 and 2000 mg/kg oral, four rats each, the one death (50 mg/kg) attributed to trauma of administration
  deaths within the first week following single dose: only one animal died
[4]; rat, in vivo, single dose oral route, female Osborne-Mendel white rats
  LD50: > 2000 mg/kg
A.viscosus [5]; [8]
  MBC: 125 µg/mL (≈ 303 µM)

## [H]/N=C(\N/C(=N/[H])NCCCCCCNC(=N)NC(=N)Nc1ccc(Cl)cc1)Nc1ccc(Cl)cc1 [CLHX, Chlorhexidine]
S.sanguis; read-out: ID50 Adherent Growth
  IC50: 85000 µM
S.sanguis; read-out: ID50 Total Growth
  IC50: 390 µM
S.sanguis
  % Inhibition @ Mol.Conc.: 70%
S.mutans [1]; @ 1 × 10^-3 Mol.Conc.
  % Inhibition @ Mol.Conc.: 95%
S.mutans [1]; read-out: ID50 Adherent Growth
  IC50: 97 µM
S.mutans [1]; read-out: ID50 Total Growth
  IC50: 86 µM
S.mutans [2]; [7]
  MBC: 250 µg/mL (≈ 495 µM)
A.viscosus [3]; @ 1 × 10^-3 Mol.Conc.
  % Inhibition @ Mol.Conc.: 85%
A.viscosus [3]; read-out: ID50 Adherent Growth
  IC50: 29 µM
A.viscosus [3]; read-out: ID50 Total Growth
  IC50: 23 µM
A.naeslundii; @ 1 × 10^-3 Mol.Conc.
  % Inhibition @ Mol.Conc.: 78%
A.naeslundii; read-out: ID50 Adherent Growth
  IC50: 5100 µM
A.naeslundii; read-out: ID50 Total Growth
  IC50: 4400 µM
A.viscosus [5]; [8]
  MBC: 500 µg/mL (≈ 989 µM)

## O=C(Nc1cccc(C(F)(F)F)c1)c1cc(Br)cc(Br)c1O [SBF-1, Fluorophene]
S.mutans [1]; @ 2 × 10^-3 Mol.Conc.
  % Inhibition @ Mol.Conc.: 86%
A.viscosus [3]; @ 3.3 × 10^-3 Mol.Conc.
  % Inhibition @ Mol.Conc.: 65%

## O=C(Nc1ccc(Br)cc1)c1cc(Br)cc(Br)c1O [TBS, Tribromosalan]
S.sanguis
  % Inhibition @ Mol.Conc.: 46%
S.mutans [1]; @ 1.5 × 10^-3 Mol.Conc.
  % Inhibition @ Mol.Conc.: 46%
S.mutans [2]
  MBC: 1000 µg/mL (≈ 2220 µM)
A.viscosus [3]; @ 1 × 10^-3 Mol.Conc.
  % Inhibition @ Mol.Conc.: 53%
A.naeslundii; @ 1.5 × 10^-3 Mol.Conc.
  % Inhibition @ Mol.Conc.: 86%
A.viscosus [5]
  MBC: 500 µg/mL (≈ 1110 µM)

## tetrachlorosalicylanilide
[6]
  allergic reactions in man: allergic reactions in man
